# Experimental data: US20100003190A1, “Method for protecting renal tubular epithelial cells from radiocontrast nephropathy (RCN)” (Caritas St. Elizabeth's Medical Center of Boston, Inc., priority 2006, published 2010)
# Assays:
# [1] = MTT cell viability of HK-2 cells exposed to iodinated radiocontrast media, with or without rhEpo; format: cell-based, human; details: human, HK-2 cells (proximal tubular cell line), HK-2 cells, 100 mg iodine/mL contrast media, read-out: reduction of cell viability (MTT); for cytotoxicity at 1 h, 100 mg iodine/mL: 1-hour incubation; for cytotoxicity at 6 h, 100 mg iodine/mL: 6-hour incubation
# Protocol: (§1) HK-2, a proximal tubular cell line derived from normal human kidney, and LLC-PK1, a proximal renal tubular cell line of porcine origin, were obtained from the American Type Culture Collection ATCC (Manassas, Va.). HK-2 cells were grown in DMEM media (GIBCO) supplemented with 10% FBS (Hyclone), 15 mM HEPES, 2 mM L-glutamine, 50 U/ml penicillin, 50 μg/ml streptomycin (GIBCO), 0.1 μg/ml hydrocortisone, 5 μg/ml insulin, and 5 μg/ml apotransferrin (Sigma, St. Louis, Mo.). LLC-PK1 cells were maintained in medium 199 (GIBCO) supplemented with 10% FBS and penicillin-streptomycin. For the planned experiments, cells were seeded on 24-well plates at a density of 10^4 cells/cm^2 and cultured at 37° C. for 24 hours.
# (§2) […] The cell viability was assessed by the mitochondrial activity in reducing MTT to form […] using a commercially available kit (Cell Proliferation Kit, Roche, Penzberg, Germany). In brief, cells were incubated at 37° C. for 4 hours in 200 μl of serum-free, phenol red free medium containing 20 μl of the MTT labeling reagent. 200 μl of solubilization solution were added to each well and cells were incubated at 37° C. for 24 hours. Aliquots of the incubation medium were transferred to a 96-well microplate and absorbance was measured at 570 nm with the reference of 690 nm using a microplate reader (MRX-II, Dynex).
# LLC-PK1 cells = assay: MTT cell viability of LLC-PK1 cells exposed to iodinated radiocontrast media, with or without rhEpo or darbepoetin; format: cell-based, porcine; details: LLC-PK1 cells (data not shown)
# Protocol: as §1
# Cells were exposed to iodinated radiocontrast media (100 mg iodine/ml) for 6 hours at 37° C., then washed twice with Dulbecco PBS solution, and incubated in serum-free culture medium for 24 hours at 37° C. The cell viability was assessed by the mitochondrial activity in reducing MTT to form […] using a commercially available kit (Cell Proliferation Kit, Roche, Penzberg, Germany). […] Aliquots of the incubation medium were transferred to a 96-well microplate and absorbance was measured at 570 nm with the reference of 690 nm using a microplate reader (MRX-II, Dynex).
# HK-2 cells = assay: MTT cell viability of HK-2 cells exposed to iodinated radiocontrast media, with or without rhEpo; format: cell-based, human
# Protocol: as §1, §2
# caspase-3 = assay: Caspase-3 activity (Caspase-Glo 3/7) in LLC-PK1 cells after radiocontrast media; format: cell-based, porcine
# Protocol: Activity of caspase-3 was measured by the degradation of subtype-specific peptide substrate after exposure of LLC-PK1 cells to iohexol or iodixanol. In brief, cells were seeded in 96-well plates and treated with radiocontrast media as described. After removal of the media, 100 μl of the Caspase-Glo 3/7 reagent (Promega, Madison, Wis.) were added to each well, and cells were incubated at room temperature for 1 hour. Luminescence of each sample was measured on a luminometer (Lumat LB9507, EGG Berthold). As a control for specificity, DEVD-CHO (Calbiochem, EMD Biosciences), a caspase-3 inhibitor, was added to appropriate wells during incubation in a final concentration of 50 μM. In parallel, cells were stained in wells with crystal violet and the absorption at 600 nm was measured. For each well, the luminometer data were normalized to the level of crystal violet absorption.
# [2] = patients with chronic renal failure; cited from earlier work
# [3] = renal tubular epithelial cells, co-treatment, cell line not given
compound,measurement,setting,value
CC(=O)N(CC(O)CO)c1c(I)c(C(=O)NCC(O)CO)c(I)c(C(=O)NCC(O)CO)c1I (stereo not shown) [iohexol],"cytotoxicity at 1 h, 100 mg iodine/mL",[1],36%
same,"cytotoxicity at 6 h, 100 mg iodine/mL",[1],60%
same,cell damage by radio-contrast agent,LLC-PK1 cells,marked cell damage
"rhEpo: Recombinant human erythropoietin, a widely available agent for the treatment of anemia; Epoetin alfa (EPOGEN) purchased from Amgen",protective effect against cytotoxic effect of iodixanol,"HK-2 cells; HK-2 cells, 200 U/ml rhEpo, iodixanol 100 mg iodine/ml",similarly protective
same,protective effect against cellular toxicity of iohexol,"HK-2 cells; HK-2 cells, 6 hours iohexol, three concentrations of rhEpo (0-400 U/ml), dose dependent",partially reversed
same,concentration providing ceiling of protective effect,"HK-2 cells; HK-2 cells, iohexol",200 U/ml
same,reduction of toxicity of iodixanol (MTT cell viability assay),HK-2 cells; [3],20%
same,reduction of toxicity of iohexol (MTT cell viability assay),HK-2 cells; [3],20%
same,effect on iohexol-induced caspase-3 activation,"caspase-3; LLC-PK1 cells, co-treatment, rhEpo 200 U/ml",suppressed
same,reduction of the induction of caspase-3 activation by iohexol,caspase-3; co-treatment of cells with rhEpo,20%
CC(=O)N(CC(O)CN(C(C)=O)c1c(I)c(C(=O)NCC(O)CO)c(I)c(C(=O)NCC(O)CO)c1I)c1c(I)c(C(=O)NCC(O)CO)c(I)c(C(=O)NCC(O)CO)c1I (stereo not shown) [iodixanol],"cytotoxicity at 1 h, 100 mg iodine/mL",[1],33%
same,"cytotoxicity at 6 h, 100 mg iodine/mL",[1],48%
same,cell damage by radio-contrast agent,LLC-PK1 cells,marked cell damage
same,effect on caspase-3 activity,"caspase-3; LLC-PK1 cells, 100 mg iodine/ml",induced an increase
DEVD-CHO,effect on radiocontrast-induced increase in caspase-3 activity,"caspase-3; LLC-PK1 cells, iohexol or iodixanol, co-treatment with inhibitor 50 μM",abrogated
C[C@H](O)C(=O)Nc1c(I)c(C(=O)NC(CO)CO)c(I)c(C(=O)NC(CO)CO)c1I [iopamidol],elimination half-life,[2],about 70 hours
"CC(=O)Nc1c(I)c(NC(C)=O)c(I)c(C(=O)O)c1I [diatrizoate, 3,5-Diacetamido-2,4,6-triiodobenzoic acid]","cytotoxicity at 1 h, 100 mg iodine/mL",[1],44%
same,"cytotoxicity at 6 h, 100 mg iodine/mL",[1],99%
same,"toxic effects on renal tubular cells, comparison between contrast media","HK-2 cells; HK-2 cells, 6-hour incubation",more toxicity
